Test results as given in patent publication US10731159B2, “Cationic lipid” (DAIICHI SANKYO COMPANY, LIMITED, priority 2013, dated 2020).

Assays:
Type in all cases: cell-based
[1] = system: human hepatocellular carcinoma HuH-7 cell line; experiment: Test Example 11: mCherry mRNA expression in HuH-7 cells, fluorescent observation; settings: mCherry mRNA 2, 0.4, 0.08 μg/mL, one day after transfection, particle of Example 58
Procedure: As described below, the expression of mCherry was measured using a nucleic acid lipid particle prepared using a novel lipid.
The concentration of a human hepatocellular carcinoma HuH-7 cell line was adjusted to 10,000 cells/mL in a DMEM medium (manufactured by Invitrogen Corp.) containing 10% fetal bovine serum (culture medium). Then, the resulting culture solution was inoculated at 100 μL/well to a 96-well flat-bottomed plate (manufactured by Corning Inc./Falcon) and cultured at 37° C. for 1 day under 5.0% CO2. The nucleic acid lipid particle dispersion prepared in Example 58 was diluted with a culture medium to prepare dilution series having final mRNA concentrations of 2, 0.4, and 0.08 μg/mL in the medium. Then, each dilution was added to the cells after removal of the culture supernatant, and the culture was further continued. This operation was performed at N=3 for each concentration. A control group was cultured in only a culture medium.
One day after the transfection, the culture medium was removed, and 100 μL of 10 N Mildform (Wako Pure Chemical Industries Ltd.) was added to each well and left at room temperature for 10 minutes in the dark. […] After replacement with DPBS, the fluorescence was observed using IN Cell Analyzer 6000 (GE Healthcare Japan Corp.). […]

[2] = system: human β-catenin gene; experiment: Test Example 8: β-catenin gene expression inhibition in SW480 cells, procedures of Test Example 3, 50-0.05 nM; settings: procedures of Test Example 3, 50, 5, 0.5, 0.05 nM, particles of Example 55, read-out: β-catenin gene expression inhibitory activity IC50
Procedure: (§1) The concentration of a human colorectal cancer SW480 cell line (derived from human colorectal adenocarcinoma) was adjusted to 50000 cells/mL in a RPMI1640 medium (manufactured by Invitrogen Corp.) containing 10% fetal bovine serum (culture medium). Then, the resulting culture solution was inoculated at 100 μL/well to a 96-well flat-bottomed plate (manufactured by Corning Inc./Falcon) and cultured at 37° C. for 1 day under 5.0% CO2. The nucleic acid lipid particle-containing dispersion prepared in Example 31 was diluted with a culture medium to prepare dilution series having final double-stranded polynucleotide concentrations of 30, 3, 0.3, and 0.03 nM in the medium. Then, each dilution was added to the cells after removal of the culture supernatant, and the culture was further continued for 4 hours. This operation was performed at N=3 for each concentration.
(§2) A lysate and cDNA for real-time PCR measurement were prepared from the transfected cells using TaqMan® Fast-Cells-to-Ct kit (Life Technologies, Inc./Ambion) according to the instruction manual. In the lysate preparation, Lysis Solution supplemented with DNase I was used. The probes for real-time PCR used were TaqMan® Gene Expression Assays (CTNNB1, FAM probe) (Hs00355045_m1, manufactured by Applied Biosystems, Inc.) for the human β-catenin gene and a human GAPDH gene probe as an internal standard (VIC probe, Hs99999905_m1, manufactured by Applied Biosystems, Inc.). 5 μL of TaqMan® Fast Advanced Master Mix, 2 μL of RNase-Free Water, 0.5 μL of each gene probe, and 2 μL of the prepared cDNA solution were added per well of a 384-well PCR plate (manufactured by Applied Biosystems, Inc.) to bring the total amount to 10 μL, which was then loaded in ViiA™ 7 Real-time PCR system (manufactured by Applied Biosystems, Inc.) and subjected to PCR under conditions given below. The real-time PCR was carried out at N=4 for the cDNA prepared from the lysate.
(§3) The quantitative analysis was conducted by the ΔΔCt method.
By the same procedures as in Test Example 3, SW480 cells were treated with 50 nM, 5 nM, 0.5 nM, and 0.05 nM each of nucleic acid lipid particles each prepared using a novel lipid, and the strength of human β-catenin gene expression inhibitory activity was compared among these particles.

[3] = system: human β-catenin gene; experiment: Test Example 1: β-catenin gene expression inhibition in SW480 cells, 3 days, real-time PCR; settings: nucleic acid lipid particle of Example 31 containing the named lipid, double-stranded polynucleotide concentration, read-out: β-catenin gene expression inhibitory activity IC50
Procedure: As described below, the strength of human β-catenin gene expression inhibitory activity was compared among nucleic acid lipid particles each prepared using a novel lipid.
as §1, with “to 50,000” for “to 50000”, “in an” for “in a”, “lipid particle” for “lipid particle-containing”, “30, 3.0,” for “30, 3,”, “for 3 days.” for “for 4 hours.”
as §2
PCR initial activation: 95° C. for 20 seconds
PCR: 95° C. for 1 second • 62° C. for 20 seconds
This PCR cycle was repetitively performed 40 times.
as §3

| SMILES | expression of mCherry (fluorescent observation, FIG. 6, in words) [1] | IC50 [2] [nM] | IC50 [3] [nM] |
| --- | --- | --- | --- |
| CCCCC/C=C\C/C=C\CCCCCCCC(CCCCCCCCCC)OC(=O)OCCCN(C)C (stereo not drawn) [Example 8, 3-Dimethylaminopropyl(9Z,12Z)-octacosa-19,22-dien-11-yl Carbonate] | promote the expression of mCherry |  |  |
| CCCCC/C=C\C/C=C\CCCCCCCCC(CCCCCCCC/C=C\C/C=C\CCCCC)OC(=O)OCCN(C)C [Reference Example 2, 2-(Dimethylamino)ethyl(6Z,9Z,28Z,31Z)-heptatriaconta-6,9,28,31-tetraen-19-yl Carbonate, reference compound] |  | > 50 | > 30 |
